From patent US20220306647A1, “NOVEL INDOLE-2-CARBOXAMIDES ACTIVE AGAINST THE HEPATITUS B VIRUS (HBV)” (AICURIS GMBH & CO. KG, priority 2019, published 2022)
pEC50, pIC50: −log10 of the molar value. Read-outs that look alike come from different tables or passages of the source.

Key:
[1] = molecular target: T1, HBV core protein (C-terminal truncated core protein, 149 amino acids of the N-terminal assembly domain, BODIPY-FL labelled) (UniProt P03146); test: Biochemical capsid assembly assay (fluorescence quenching)
T1 construct: fused on or other part: A single cysteine added after residue 149, at position 150; It carries the BODIPY-FL maleimide label
How it was run: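 Fluorescence quenching of BODIPY-FL-labelled core dimers (1.0 to 2.0 μM) in 50 mM HEPES pH 7.5; compounds at 8 concentrations, 0.5 log-unit dilutions from top 100, 31.6 or 10 μM, 0.5% DMSO. Assembly started with NaCl to […]; fluorescence (ex 477/em 525 nm) read after 6 min. EC50 by non-linear regression.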

HBV (HepAD38 cells) = test: HBV replication assay: determination of HBV DNA from the supernatants of HepAD38 cells; assay type: cell-based; conditions: Hepatitis B virus, 144 h, HBV DNA in HepAD38 supernatant at day 6, qPCR, read-out: Cell activity
Protocol: Determination of HBV DNA from the Supernatants of HepAD38 Cells
The anti-HBV activity was analysed in the stable transfected cell line HepAD38, which has been described to secrete high levels of HBV virion particles (Ladner et al., 1997). In brief, HepAD38 cells were cultured at 37° C. at 5% CO2 and 95% humidity in 200 μl maintenance medium, which was Dulbecco's modified Eagle's medium/Nutrient Mixture F-12 (Gibco, Karlsruhe), 10% fetal bovine serum (PAN Biotech Aidenbach) supplemented with 50 μg/ml penicillin/streptomycin (Gibco, Karlsruhe), 2 mM L-glutamine (PAN Biotech, Aidenbach), 400 μg/ml G418 (AppliChem, Darmstadt) and 0.3 μg/ml tetracycline. Cells were subcultured once a week in a 1:5 ratio, but were usually not passaged more than ten times. For the assay 60,000 cells were seeded in maintenance medium without any tetracycline into each well of a 96-well plate and treated with serial half-log dilutions of test compound. To minimize edge effects the outer 36 wells of the plate were not used but were filled with assay medium. On each assay plate six wells for the virus control (untreated HepAD38 cells) and six wells for the cell control (HepAD38 cells treated with 0.3 μg/ml tetracycline) were allocated, respectively. In addition, one plate set with reference inhibitors like BAY 41-4109, entecavir, and lamivudine instead of screening compounds were prepared in each experiment. In general, experiments were performed thrice in triplicates. At day 6 HBV DNA from 100 μl filtrated cell culture supernatant (AcroPrep Advance 96 Filter Plate, […] Supor membran, PALL GmbH, Dreieich) was automatically purified on the MagNa Pure LC instrument using the MagNA Pure 96 DNA and Viral NA Small Volume Kit (Roche Diagnostics, Mannheim) according to the instructions of the manufacturer. EC50 values were calculated from relative copy numbers of HBV DNA In brief, 5 μl of the 100 μl eluate containing HBV DNA were subjected to PCR LC480 Probes Master Kit (Roche) together with 1 μM antisense primer […], 0.5 μM sense primer […], 0.3 μM hybprobes […]-FL and LC640-[…]-PH (TIBMolBiol, Berlin) to a final volume of 12.5 μl. The PCR was performed on the Light Cycler 480 real time system (Roche Diagnostics, Mannheim) using the following protocol: Pre-incubation for 1 min at 95° C., amplification: 40 cycles×(10 sec at 95° C., 50 sec at 60° C., 1 sec at 70° C.), cooling for 10 sec at 40° C. Viral load was quantitated against known standards using HBV plasmid DNA of pCH-9/3091 (Nassal et al., 1990, Cell 63: 1357-1363) and the LightCycler 480 SW 1.5 software (Roche Diagnostics, Mannheim) and EC50 values were calculated using non-linear regression with GraphPad Prism 6 (GraphPad Software Inc., La Jolla, USA).

[2] = assembly started with NaCl, fluorescence read after 6 min, read-out: Assembly activity
[3] = read-out: Assembly activity, assembly started with NaCl, fluorescence read after 6 min

T1 sequence (P03146 whole entry, the tested form may be a part): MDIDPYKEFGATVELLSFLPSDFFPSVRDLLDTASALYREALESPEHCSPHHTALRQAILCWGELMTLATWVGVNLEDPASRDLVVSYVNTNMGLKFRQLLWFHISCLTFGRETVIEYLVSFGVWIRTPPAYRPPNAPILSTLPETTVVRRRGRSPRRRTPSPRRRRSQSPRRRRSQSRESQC

| SMILES | pIC50 [1, 2] | pEC50 (HBV (HepAD38 cells)) | pIC50 [1, 3] |
| --- | --- | --- | --- |
| CN(C(=O)c1cnn2c1CN(C(=O)c1cc3ccccc3[nH]1)CC2)C1(COc2cccc(C(=O)O)c2)CC1 [Example 62, 3-({1-[N-methyl-5-(1H-indole-2-carbonyl)-4H,5H,6H,7H-pyrazolo[1,5-a]pyrazine-3-amido]cyclopropyl}methoxy)benzoic acid] | > 5.30 | > 4.00 | – |
| CN(C(=O)c1cnn2c1CN(C(=O)c1cc3cc(F)c(Cl)cc3[nH]1)CC2)C1(c2cccc(C(=O)O)c2)CC1 [Example 33, 3-{1-[N-methyl-5-(6-chloro-5-fluoro-1H-indole-2-carbonyl)-4H,5H,6H,7H-pyrazolo[1,5-a]pyrazine-3-amido]cyclopropyl}benzoic acid] | > 5.30 | > 6.00 | – |
| CN(CCO)C(=O)c1noc2c1CN(C(=O)c1cc3c(Cl)cccc3[nH]1)CC2 [Example 21, 5-(4-chloro-1H-indole-2-carbonyl)-N-(2-hydroxyethyl)-N-methyl-4H,5H,6H,7H-[1,2]oxazolo[4,5-c]pyridine-3-carboxamide] | > 5.30 | > 6.00 | – |
| O=C(NC1CC1)c1noc2c1CN(C(=O)c1cc3ccccc3[nH]1)CC2 [Example 10, N-cyclopropyl-5-(1H-indole-2-carbonyl)-4H,5H,6H,7H-[1,2]oxazolo[4,5-c]pyridine-3-carboxamide] | > 5.30 | > 4.00 | – |
| O=C(c1cc2ccccc2[nH]1)N1CCc2onc(C(=O)N3CCCOCC34CC4)c2C1 [Example 96, 4-[5-(1H-indole-2-carbonyl)-4H,5H,6H,7H-[1,2]oxazolo[4,5-c]pyridine-3-carbonyl]-8-oxa-4-azaspiro[2.6]nonane] | > 5.30 | > 6.00 | – |
| Cc1cc(F)cc2[nH]c(C(=O)N3CCn4ncc(C(=O)N(C)C5(c6ncc(C(=O)O)cn6)CC5)c4C3)cc12 [Example 60, 2-{1-[N-methyl-5-(6-fluoro-4-methyl-1H-indole-2-carbonyl)-4H,5H,6H,7H-pyrazolo[1,5-a]pyrazine-3-amido]cyclopropyl}pyrimidine-5-carboxylic acid] | > 5.30 | 5.00 to 6.00 | – |
| CN(C(=O)c1cnn2c1CN(C(=O)c1cc3cc(F)c(Cl)cc3[nH]1)CC2)C1(c2ncc(C(=O)O)cn2)CC1 [Example 57, 2-{1-[N-methyl-5-(6-chloro-5-fluoro-1H-indole-2-carbonyl)-4H,5H,6H,7H-pyrazolo[1,5-a]pyrazine-3-amido]cyclopropyl}pyrimidine-5-carboxylic acid] | > 5.30 | 5.00 to 6.00 | – |
| O=C(c1cc2ccccc2[nH]1)N1CCc2nn3c(c2C1)C(=O)N(CCOCc1ccccc1)C1(CC3)CC1 [Example 90, 13′-[2-(benzyloxy)ethyl]-4′-(1H-indole-2-carbonyl)-4′,8′,9′,13′-tetraazaspiro[cyclopropane-1,12′-tricyclo[7.5.0.0^2,7]tetradecane]-1′,7′-dien-14′-one] | > 5.30 | > 6.00 | – |
| CN(Cc1ccccn1)C(=O)c1noc2c1CN(C(=O)c1cc3ccccc3[nH]1)CC2 [Example 26, 5-(1H-indole-2-carbonyl)-N-methyl-N-[(pyridin-2-yl)methyl]-4H,5H,6H,7H-[1,2]oxazolo[4,5-c]pyridine-3-carboxamide] | > 5.30 | 5.00 to 6.00 | – |
| CN(C(=O)c1onc2c1CN(C(=O)c1cc3ccccc3[nH]1)CC2)C1(c2ccc(C(=O)O)cc2)CC1 [Example 109, 4-{1-[N-methyl-5-(1H-indole-2-carbonyl)-4H,5H,6H,7H-[1,2]oxazolo[4,3-c]pyridine-3-amido]cyclopropyl}benzoic acid] | > 5.30 | > 6.00 | – |
| O=C1NC2(CC2)Cn2nc3c(c21)CN(C(=O)c1cc2ccccc2[nH]1)CC3 [Example 43, 12′-(1H-indole-2-carbonyl)-4′,7′,8′,12′-tetraazaspiro[cyclopropane-1,5′-tricyclo[7.4.0.0^2, D]tridecane]-1′,8′-dien-3′-one] | – | 5.00 to 6.00 | > 5.30 |
| C[C@@H](NC(=O)c1noc2c1CN(C(=O)c1cc3cc(F)c(Cl)cc3[nH]1)CC2)C(F)(F)F [Example 103, 5-(6-chloro-5-fluoro-1H-indole-2-carbonyl)-N-[(2R)-1,1,1-trifluoropropan-2-yl]-4H,5H,6H,7H-[1,2]oxazolo[4,5-c]pyridine-3-carboxamide] | > 5.30 | > 6.00 | – |
| C[C@@H](NC(=O)c1noc2c1CN(C(=O)c1cc3c(F)c(F)ccc3[nH]1)CC2)C(F)(F)F [Example 105, 5-(4,5-difluoro-1H-indole-2-carbonyl)-N-[(2R)-1,1,1-trifluoropropan-2-yl]-4H,5H,6H,7H-[1,2]oxazolo[4,5-c]pyridine-3-carboxamide] | > 5.30 | > 6.00 | – |
| CN(C(=O)c1cnn2c1CN(C(=O)c1cc3c(Cl)c(F)c(Cl)cc3[nH]1)CC2)C1(c2ccc(C(=O)O)cc2)CC1 [Example 110, 4-{1-[N-methyl-5-(4,6-dichloro-5-fluoro-1H-indole-2-carbonyl)-4H,5H,6H,7H-pyrazolo [1,5-a]pyrazine-3-amido]cyclopropyl}benzoic acid] | – | > 6.00 | > 5.30 |
| CN(C(=O)c1noc2c1CN(C(=O)c1cc3ccccc3[nH]1)CC2)C1(c2cocn2)CC1 [Example 2, 5-(1H-indole-2-carbonyl)-N-methyl-N-[1-(1,3-oxazol-4-yl)cyclopropyl]-4H,5H,6H,7H-[1,2]oxazolo[4,5-c]pyridine-3-carboxamide] | > 5.30 | > 6.00 | – |
| CN(C(=O)c1cnn2c1CN(C(=O)c1cc3ccccc3[nH]1)CC2)C1(Cc2ccc(C(=O)O)cc2)CC1 [Example 34, 4-({1-[N-methyl-5-(1H-indole-2-carbonyl)-4H,5H,6H,7H-pyrazolo[1,5-a]pyrazine-3-amido]cyclopropyl}methyl)benzoic acid] | > 5.30 | 5.00 to 6.00 | – |
| CN(C(=O)c1cnn2c1CN(C(=O)c1cc3c(F)c(F)c(F)cc3[nH]1)CC2)C1(c2ccc(C(=O)O)cc2)CC1 [Example 78, 4-{1-[N-methyl-5-(4,5,6-trifluoro-1H-indole-2-carbonyl)-4H,5H,6H,7H-pyrazolo[1,5-a]pyrazine-3-amido]cyclopropyl}benzoic acid] | > 5.30 | > 6.00 | – |
| CCN1C(=O)c2c3c(nn2CCC12CC2)CCN(C(=O)c1cc2ccccc2[nH]1)C3 [Example 86, 13′-ethyl-4′-(1H-indole-2-carbonyl)-4′,8′,9′,13′-tetraazaspiro[cyclopropane-1,12′-tricyclo[7.5.0.0^2,7]tetradecane]-1′,7′-dien-14′-one] | > 5.30 | > 6.00 | – |
| Cc1c(F)ccc2[nH]c(C(=O)N3CCc4nn5c(c4C3)C(=O)N(C)C3(CC3)C5)cc12 [Example 18, 12′-(5-fluoro-4-methyl-1H-indole-2-carbonyl)-4′-methyl-4′,7′,8′,12′-tetraazaspiro[cyclopropane-1,5′-tricyclo[7.4.0.0^2′7]tridecane]-1′,8′-dien-3′-one] | > 5.30 | > 6.00 | – |
| CN(C(=O)c1cnn2c1CN(C(=O)c1cc3ccccc3[nH]1)CC2)C1(COc2ccccc2C(=O)O)CC1 [Example 61, 2-({1-[N-methyl-5-(1H-indole-2-carbonyl)-4H,5H,6H,7H-pyrazolo[1,5-a]pyrazine-3-amido]cyclopropyl}methoxy)benzoic acid] | > 5.30 | 5.00 to 6.00 | – |
| C[C@@H](NC(=O)c1noc2c1CN(C(=O)c1cc3c(Cl)cccc3[nH]1)CC2)C(F)(F)F [Example 104, 5-(4-chloro-1H-indole-2-carbonyl)-N-[(2R)-1,1,1-trifluoropropan-2-yl]-4H,5H,6H,7H-[1,2]oxazolo[4,5-c]pyridine-3-carboxamide] | > 5.30 | > 6.00 | – |
